Results from US6472157B2, “Methods for detection of promoter polymorphism in a UGT gene promoter” (Arch Development Corporation, priority 1999, dated 2002).
“Also recorded” adds a separate entry of the source. Blank lines part the entries; values can stand above or below the compound they belong to.

Tests used:
human UGT1A4 = target: T1, human UGT1A4 (Homo sapiens, UniProt P22310); test: SN-38 glucuronidation by cDNA-expressed UGT1A4 in HK293 cells; details: HK293 cells expressing UGT1A4; up to a protein concentration of 2 mg/ml
T1 sequence (P22310 29-534): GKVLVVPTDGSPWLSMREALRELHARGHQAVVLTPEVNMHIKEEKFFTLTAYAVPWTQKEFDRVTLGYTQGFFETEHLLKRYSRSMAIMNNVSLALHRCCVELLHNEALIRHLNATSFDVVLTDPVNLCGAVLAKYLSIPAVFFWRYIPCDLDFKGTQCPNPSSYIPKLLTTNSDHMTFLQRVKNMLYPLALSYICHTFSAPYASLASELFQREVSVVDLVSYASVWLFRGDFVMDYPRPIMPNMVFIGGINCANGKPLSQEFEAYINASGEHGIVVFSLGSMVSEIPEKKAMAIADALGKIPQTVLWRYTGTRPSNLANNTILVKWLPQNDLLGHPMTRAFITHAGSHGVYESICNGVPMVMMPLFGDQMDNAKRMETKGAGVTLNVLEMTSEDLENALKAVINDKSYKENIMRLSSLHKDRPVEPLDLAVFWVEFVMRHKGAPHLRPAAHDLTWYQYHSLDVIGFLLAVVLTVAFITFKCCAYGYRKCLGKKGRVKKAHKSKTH
From the text: (§1) Cell lysates from HK293 cells expressing UGT1A1 (♦), UGT1A4 (□) and UGT2B7 enzymes (Δ), and membrane preparations of HK293 cells expressing UGT1A1 enzyme (●), were screened for SN-38 glucuronidating activity. HK293 cells (⋄) were used as a control. Each data point represents the mean of three separate determinations.
(§2) To determine which particular isozyme of UGT1 glucuronidates SN-38, HK293 cells transfected with and expressing cDNA encoding selected UGT1 isozymes and a member of the UGT2 family (UGT2B7) were screened for SN-38 glucuronidating activity. Culture media and conditions for stable expression of human UGT1A1, UGT1A4, and UGT2B7 have been described previously. Coffman, et al., Mol. Pharmacol., 47:1101-1105 (1995), Green, et al., Drug Metab. Dispos., 23:299-302 (1995); Coffman, et al., Drug Metab. Dispos., 25:1-4 (1997) all are incorporated herein by reference. Briefly, the XbaI/XhoI and BamHI-XhoI fragments of human UGT1A1, UGT1A4, and UGT2B7 were subcloned into the respective corresponding sites of the mammalian expression vectors pcDNA3, pREP9, and pcDNA3.1. HK293 cells were transfected with the vector-UGT isozyme using the calcium phosphate transfection method. Chen, et al., Biotechniques, 6:632-638 (1988). The cells were then assayed for glucuronidation activity as described above.

UGT enzymes [1] = test: SN-38 glucuronidation assay in Gunn rat liver microsomes; assay type: in vitro ADME; details: liver microsomes from Gunn rats
Protocol: (§3) To investigate which UGT enzymes are responsible for SN-38 glucuronidation, the in vitro metabolism of SN-38 was measured using normal human and rat liver microsomes, as well as microsomes from Gunn rats, Gunn, C. H., J. Hered., 29:137-139 (1938), and patients with Crigler-Najjar type I (CN-1) syndrome. Liver microsomes were prepared from normal humans, CN-1 patients, normal rats, and Gunn rats and assayed for SN-38 glucuronidation. Microsomes from human liver samples medically unsuitable for liver transplantation were acquired under the auspices of the Washington Regional Transplant Consortium. In addition, microsomes were prepared by differential centrifugation methods. Purba, H. S., et al., Br. J. Clin. Pharmaocol. 23:447-453, using human liver samples obtained with the approval of the Institutional Review Boards of institutions involved through the Liver Tissue Procurement and Distribution System. Investigations were performed with pooled microsomes from normal rats, normal humans and Gunn rats, while microsomes from CN-1 patients were used individually.
Microsomes (1 mg/ml) were incubated with SN-38 (5 μM), MgCl2 (10 mM), and UDPGA (5 mM) in a 0.1 M Tris-HCl buffer medium (pH 7.4) for 30 minutes at 37° C., in a final volume of 200 μl. […] A C18μ Bondapak column (10 μm, 3.9×300 mm) was used with fluorescence detection at the following wavelengths: 355 nm and 515 nm. […]

human UGT1A1 = target: T2, human UGT1A1 (Homo sapiens, UniProt P22309); test: SN-38 glucuronidation by cDNA-expressed UGT1A1 in HK293 cells; details: HK293 cells expressing UGT1A1; increased with increasing protein concentrations
T2 sequence (P22309 26-533): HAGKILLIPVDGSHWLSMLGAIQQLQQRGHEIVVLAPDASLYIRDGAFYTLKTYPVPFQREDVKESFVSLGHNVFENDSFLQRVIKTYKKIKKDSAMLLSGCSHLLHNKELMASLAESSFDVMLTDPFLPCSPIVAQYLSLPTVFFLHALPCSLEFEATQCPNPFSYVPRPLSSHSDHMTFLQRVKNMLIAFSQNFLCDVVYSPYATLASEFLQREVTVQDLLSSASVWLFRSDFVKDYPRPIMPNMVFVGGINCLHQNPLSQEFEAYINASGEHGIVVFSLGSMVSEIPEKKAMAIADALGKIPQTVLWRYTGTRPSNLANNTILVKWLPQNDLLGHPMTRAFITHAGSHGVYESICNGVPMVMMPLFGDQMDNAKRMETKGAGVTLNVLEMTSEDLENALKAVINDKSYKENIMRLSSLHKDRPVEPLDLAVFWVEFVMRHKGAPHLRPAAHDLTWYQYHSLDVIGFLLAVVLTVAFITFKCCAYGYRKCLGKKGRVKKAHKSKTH
From the text: as §1, §2

human UGT2B7 = target: T3, human UGT2B7 (Homo sapiens, UniProt P16662); test: SN-38 glucuronidation by cDNA-expressed UGT2B7 in HK293 cells; details: HK293 cells expressing UGT2B7; up to a protein concentration of 2 mg/ml
T3 sequence (P16662 24-529): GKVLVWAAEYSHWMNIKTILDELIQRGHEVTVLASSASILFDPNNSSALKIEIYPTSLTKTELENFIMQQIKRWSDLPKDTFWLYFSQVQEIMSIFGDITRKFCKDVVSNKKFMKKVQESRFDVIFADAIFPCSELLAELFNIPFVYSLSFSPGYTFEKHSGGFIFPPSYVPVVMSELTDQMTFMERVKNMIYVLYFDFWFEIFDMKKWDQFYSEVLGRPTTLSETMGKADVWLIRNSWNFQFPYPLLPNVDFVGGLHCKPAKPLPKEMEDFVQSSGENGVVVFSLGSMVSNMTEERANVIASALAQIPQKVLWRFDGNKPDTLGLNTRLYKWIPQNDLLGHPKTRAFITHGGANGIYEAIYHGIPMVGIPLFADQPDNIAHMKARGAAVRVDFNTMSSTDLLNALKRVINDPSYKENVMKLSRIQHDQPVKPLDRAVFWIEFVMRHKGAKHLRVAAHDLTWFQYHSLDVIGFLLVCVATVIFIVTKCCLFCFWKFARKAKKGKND
From the text: as §1, §2

[2] = relative to Irinotecan; cited from earlier work
UGT enzymes [3] = test: SN-38 glucuronidation assay in human liver microsomes; assay type: in vitro ADME; details: for mean SN-38 glucuronidation rate (peak area of SN-38 glucuronide ÷ peak area CPT) {SE}: African Americans liver microsomes
Protocol: as §3
Microsomes (1 mg/ml) were incubated with SN-38 (5 μM), MgCl2 (10 mM), and UDPGA (5 mM) in a 0.1 M Tris-HCl buffer medium (pH 7.4) for 30 minutes at 37° C., in a final volume of 200 μl. After stopping the reaction with 400 μl methanol, the incubation mix was centrifuged at 2,500 rpm for 30 minutes at 4° C. The supernatant was evaporated to dryness under nitrogen and in preparation of analysis by high pressure liquid chromatography (HPLC), the supernatant was reconstituted with 250 μl of a mobile phase consisting of 35% acetonitrile and 65% 0.1 M KH2PO4 containing 3 mM sodium heptane sulphonate (pH 4.0), used at a flow rate of 0.8 ml/min. A C18μ Bondapak column (10 μm, 3.9×300 mm) was used with fluorescence detection at the following wavelengths: 355 nm and 515 nm. 100 μl aliquots of the reconstituted supernatant were injected into an HPLC assay system. CPT was used as the internal standard. […] Retention times were approximately 3.5, 9, and 10 minutes, respectively. The peaks for each of these compounds were confirmed using standards of SN-38G, SN-38, and CPT.
Microsomes (1 mg/ml) were obtained from human liver tissue samples and were incubated with SN-38 (5 μM), MgCl2 (10 mM), and UDPGA (5 mM) in a 0.1 M Tris-HCl buffer medium (pH 7.4) for 30 minutes at 37° C., in a final volume of 200 μl. SN-38, SN-38G and the internal standard, CPT, were separated using high performance liquid chromatography (HPLC) coupled to fluorescence detection (ex=355 nm and em=515 nm). SN-38 reaction rates were linear for incubation times up to at least 1.5 hours and for final protein concentrations of up to 2 mg/ml. The results of this analysis, shown in Table 2 below, also include the liver samples of Caucasian origin from the first study. […]

UGT [4] = test: AZT glucuronidation assay in human liver microsomes (control); assay type: in vitro ADME; details: microsomes from normal humans and CN-1 patients; AZT 5 mM, 1 hour
Protocol: (§4) To ensure the viability and functional enzymatic activity of the microsomal preparations, the UGT activity toward another substrate, AZT (3′-azido-3′-deoxythymidine) was investigated as a control. Liver microsomes from normal humans, CN-1 patients, normal rats, and Gunn rats were prepared as described above. Investigations were performed in pooled microsomes from normal rats, normal humans and Gunn rats, while microsomes from CN-1 patients were used individually.
(§5) Microsomes were preincubated with oleolyl lysophosphatidylcholine (OLPC) (0.8% wt/wt. OLPC/microsomal protein) at 4° C. for 20 minutes. The final reaction mixture contained 1 mg/ml preincubated microsomes, AZT (5 mM), MgCl2 (10 mM), 0.2 M Tris-HCl buffer (pH 7.3), and UDPGA (10 mM) in a final volume of 300 μl. After an incubation period of 1 hour at 37° C., the reaction was stopped with the addition of 30 μl of HCl. Proteins were removed after centrifugation at 10,500 g for 5 minutes and 30 μl aliquots of the supernatant were subjected to HPLC analysis and the metabolites were detected in an ultraviolet detector at a wavelength of 265 nm. The mobile phase consisted of a 15:85 mixture of acetonitrile/ammonium phosphate buffer (0.1% vol/vol phosphoric acid, adjusted to pH 2.7 with ammonium hydroxide) used at a flow rate of 1 ml/min. […]

UGT [5] = test: AZT glucuronidation assay in rat liver microsomes (control); assay type: in vitro ADME; details: microsomes from normal rats and Gunn rats; AZT 5 mM, 1 hour
Protocol: as §4, §5

cytochrome P450 enzymes = test: 7-ethoxycoumarin O-deethylation in human liver samples; assay type: in vitro ADME; details: liver samples used in the genotype study
From the text: To evaluate the functional viability of microsomal drug-metabolizing enzymes in the liver samples used in this study, the livers were screened for 7-ethoxycoumarin O-deethylation, as 7-ethoxycoumarin is oxidized to umbelliferone by multiple cytochrome P450 enzymes. The method used is described by Evans & Relling, J. Chromatogr., 578:141-145 (1992).

UGT [6] = test: PNP glucuronidation in human liver microsomes; assay type: in vitro ADME; details: PNP 360 μM, 10 minutes
Protocol: The formation of glucuronidated PNP was quantified by the following method. […] The reaction was stopped by the addition of 2.8 ml of 0.2 M glycine-NaOH buffer (pH 10.4). Samples were centrifuged at 2,500 rpm for 30 minutes, and UGT activity in the supernatant was analyzed colorimetrically in a spectrophotometer by measuring the disappearance of the substrate at a wavelength of 400 nm.

Compound: CCc1c2c(nc3ccc(O)cc13)-c1cc3c(c(=O)n1C2)COC(=O)[C@]3(O)CC [SN-38, 7-ethyl-10-hydroxycamptothecin]
SN-38 glucuronidating activity (human UGT1A4): lack of SN-38 glucuronidating activity
in vitro SN-38 glucuronidating activity (UGT enzymes [1]): no in vitro glucuronidation; also recorded: lack SN-38 glucuronidating activity
SN-38G formation (human UGT1A1): measurable SN-38G formation
SN-38 glucuronidating activity (human UGT2B7): lack of SN-38 glucuronidating activity
higher antitumor activity than Irinotecan [2]: 100-1,000 fold
rates of SN-38G formation among individuals (range) (UGT enzymes [3]; 25 normal human liver microsomes, SN-38 5 μM, 30 minutes, 37° C.): 0.5-26 pmol of SN-38G formed/min/mg microsomal protein
mean SN-38 glucuronidation rate (peak area of SN-38 glucuronide ÷ peak area CPT) {SE} (UGT enzymes [3]; UGT1A1 promoter genotype 5/7): 0.39
mean SN-38 glucuronidation rate (peak area of SN-38 glucuronide ÷ peak area CPT) {SE} (UGT enzymes [3]; UGT1A1 promoter genotype 6/8): 0.12
in vitro SN-38 glucuronidating activity (UGT enzymes [3]; liver microsomes from CN-1 patients): no in vitro glucuronidation; also recorded: lack SN-38 glucuronidating activity

in vitro formation of G-AZT (UGT [4]): Intact in vitro formation of G-AZT
in vitro formation of G-AZT (UGT [5]): Intact in vitro formation of G-AZT
Compound: Cc1cn([C@H]2C[C@H](N=[N+]=[N-])[C@@H](CO)O2)c(=O)[nH]c1=O [AZT, 3′-azido-3′-deoxythymidine]

rates of umbelliferone formation (7-ethoxycoumarin O-deethylation) (cytochrome P450 enzymes): within the expected range
Compound: CCOc1ccc2ccc(=O)oc2c1 [7-ethoxycoumarin]

Compound: O=[N+]([O-])c1ccc(O)cc1 [PNP]
rates of PNP glucuronidation (mean±SEM) (UGT [6]): 20.39±2.4 nmol PNP glucuronidated/min/mg protein
rates of PNP glucuronidation (range) (UGT [6]): 16.48-23.82 nmol PNP glucuronidated/min/mg protein
